#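 Cultured in 96-well plates, cells were exposed to test compound for 48 hours across five concentrations. Abbreviation: GI50, concentration required for 50% inhibition of growth. TGI: total growth inhibition.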
# Tests used:
# Assay in all cases: growth of human tumour cells (NCI), 48 h
# [1] = test system: 786-0 renal
# [2] = test system: IGROV1 ovarian
# [3] = test system: K-562 leukemia
# [4] = test system: MALME-3M melanoma
# [5] = test system: NCI-H522 lung
# [6] = test system: RPMI-8226 leukemia
# [7] = test system: TK-10 renal
# [8] = test system: RXF 393 renal
# [9] = test system: MCF7 breast
# [10] = test system: MDA-MB-231 breast
smiles,measurement,setting,value
COC12CCC(C(C(=O)c3ccccc3)=C1C(=O)c1ccccc1)C(O)C2 (configuration not stated),TGI,[1],> 100 µM
same,TGI,[2],> 100 µM
same,TGI,[3],> 100 µM
same,TGI,[4],> 100 µM
same,TGI,[5],> 100 µM
same,TGI,[6],> 100 µM
same,TGI,[7],> 100 µM
COc1cc(/C=C\c2ccc(Br)cc2)cc(OC)c1OC,TGI,[1],13.7 µM
same,TGI,[2],> 100 µM
same,TGI,[3],36.8 µM
same,TGI,[4],34.8 µM
same,TGI,[5],0.00151 µM
same,TGI,[6],27.6 µM
CC(NC(=O)C(=O)N/N=C1\C[C@@H](c2ccccc2)Nc2ccccc21)c1ccccc1 (some centres not stated),TGI,[1],> 100 µM
same,TGI,[4],99.6 µM
same,TGI,[5],> 100 µM
same,TGI,[8],> 100 µM
same,TGI,[7],> 100 µM
O=C1C(=O)N(c2nccs2)C(=O)C(=O)C1c1nc2ccccc2s1,TGI,[1],> 100 µM
same,TGI,[2],> 100 µM
same,TGI,[4],> 100 µM
same,TGI,[6],> 100 µM
same,TGI,[8],> 100 µM
same,TGI,[7],> 100 µM
CC(C)C(=O)[O-].CC(C)C(=O)[O-].N.N.N.N.[Co+3].[O-][Cl+3]([O-])([O-])[O-],GI50,[1],> 100 µM
same,TGI,[1],> 100 µM
same,GI50,[2],> 100 µM
same,TGI,[2],> 100 µM
same,GI50,[3],> 100 µM
same,TGI,[3],> 100 µM
same,GI50,[4],> 100 µM
same,TGI,[4],> 100 µM
same,GI50,[5],> 100 µM
same,TGI,[5],> 100 µM
same,GI50,[6],> 100 µM
same,TGI,[6],> 100 µM
same,GI50,[7],> 100 µM
same,TGI,[7],> 100 µM
O=C(N/C(=C\c1ccc(/C=C(\NC(=O)c2ccccc2)c2nc3ccccc3s2)cc1)c1nc2ccccc2s1)c1ccccc1,TGI,[1],3.49 µM
same,TGI,[2],18.6 µM
same,TGI,[3],> 100 µM
same,TGI,[4],25.2 µM
same,TGI,[5],4.1 µM
same,TGI,[6],37.3 µM
same,TGI,[8],32.6 µM
same,TGI,[7],25.2 µM
Cc1ccc(Nc2cc(C)nc(NCCCNc3ccnc4cc(Cl)ccc34)n2)cc1,GI50,[1],1.73 µM
same,TGI,[1],3.31 µM
same,GI50,[2],1.82 µM
same,TGI,[2],3.98 µM
same,GI50,[4],1.82 µM
same,TGI,[4],3.74 µM
same,GI50,[9],1.16 µM
same,TGI,[9],2.72 µM
same,GI50,[10],1.38 µM
same,TGI,[10],2.87 µM
same,GI50,[5],1.77 µM
same,TGI,[5],3.37 µM
same,GI50,[6],1.5 µM
same,TGI,[6],3.95 µM
same,GI50,[7],1.81 µM
same,TGI,[7],3.29 µM
CC(=O)OC1CCC2C(=CCC3C2(C)C(=O)CC2(C)C(C4(C)OC(C(C)C)=CC4=O)C(O)CC32C)C1(C)C (configuration not stated),TGI,[1],> 100 µM
same,TGI,[2],> 100 µM
same,TGI,[3],> 100 µM
same,TGI,[4],47.4 µM
same,TGI,[5],> 100 µM
same,TGI,[6],56.7 µM
CC(C)CC12CC3CCC(CNC1=O)C32C (configuration not stated),TGI,[1],> 100 µM
same,TGI,[2],> 100 µM
same,TGI,[3],> 100 µM
same,TGI,[4],> 100 µM
same,TGI,[5],> 100 µM
same,TGI,[6],> 100 µM
same,TGI,[8],> 100 µM
same,TGI,[7],> 100 µM
Cc1cnccc1N=Nc1ccc(N(C)C)cc1,TGI,[1],> 100 µM
same,TGI,[2],99.6 µM
same,TGI,[3],76.7 µM
same,TGI,[4],> 100 µM
same,TGI,[9],35 µM
same,TGI,[10],70.6 µM
same,TGI,[6],48.3 µM
same,TGI,[8],53 µM
same,TGI,[7],50.9 µM
COC(=O)[C@H](C)NC(=O)[C@@H](OC)[C@@H]1Cc2cc3cc(OC4CC(OC5CC(O)C(O)C(C)O5)C(O)C(C)O4)c(C)c(O)c3c(O)c2C(=O)[C@H]1OC1CC(OC2CC(OC3CC(C)(O)C(O)C(C)O3)C(O)C(C)O2)C(O)C(C)O1 (some centres not stated),GI50,[1],0.148 µM
same,TGI,[1],9.16 µM
same,GI50,[2],0.05 µM
same,TGI,[2],> 50 µM
same,GI50,[3],0.179 µM
same,TGI,[3],> 50 µM
same,GI50,[4],0.0296 µM
same,TGI,[4],0.315 µM
same,GI50,[9],0.0236 µM
same,TGI,[9],> 50 µM
same,GI50,[10],0.247 µM
same,TGI,[10],> 50 µM
same,GI50,[6],0.1 µM
same,TGI,[6],1.89 µM
same,GI50,[7],0.336 µM
same,TGI,[7],> 50 µM
CC1(C(=O)O)CCOc2ccccc21 (configuration not stated),TGI,[1],> 100 µM
same,TGI,[2],> 100 µM
same,TGI,[3],> 100 µM
same,TGI,[4],> 100 µM
same,TGI,[6],> 100 µM
same,TGI,[8],> 100 µM
same,TGI,[7],> 100 µM
CCOC(=O)c1ccc(N2C(=O)Cc3ccccc3C2=O)cc1,TGI,[1],> 100 µM
same,TGI,[2],> 100 µM
same,TGI,[3],> 100 µM
same,TGI,[4],> 100 µM
same,TGI,[6],> 100 µM
same,TGI,[8],> 100 µM
same,TGI,[7],> 100 µM
CS/C(c1ccccc1)=[N+](\[O-])Cc1ccccc1,TGI,[1],> 100 µM
same,TGI,[2],> 100 µM
same,TGI,[3],> 100 µM
same,TGI,[4],> 100 µM
same,TGI,[5],> 100 µM
same,TGI,[6],55.3 µM
same,TGI,[8],> 100 µM
same,TGI,[7],> 100 µM
CCOC(=O)C(C(=O)OCC)C(=O)c1ccccc1C(=O)c1ccccc1,TGI,[1],> 100 µM
same,TGI,[2],> 100 µM
same,TGI,[3],> 100 µM
same,TGI,[4],> 100 µM
same,TGI,[9],> 100 µM
same,TGI,[10],> 100 µM
same,TGI,[5],> 100 µM
same,TGI,[8],> 100 µM
same,TGI,[7],> 100 µM
COc1ccc(-c2ccc(-c3ccc(C(=N)N)cn3)o2)cc1Cl,GI50,[1],1.86 µM
same,TGI,[1],3.4 µM
same,GI50,[2],1.86 µM
same,TGI,[2],3.63 µM
same,GI50,[3],2.7 µM
same,TGI,[3],7.5 µM
same,GI50,[4],1.81 µM
same,TGI,[4],3.48 µM
same,GI50,[10],1.81 µM
same,TGI,[10],3.41 µM
same,GI50,[5],1.85 µM
same,TGI,[5],3.59 µM
same,GI50,[8],1.61 µM
same,TGI,[8],3.07 µM
same,GI50,[7],3.19 µM
same,TGI,[7],9.47 µM
C=C(CNC(=O)c1ccccc1)c1ccc(C(=O)Nc2ccccc2N)cc1,GI50,[1],7.55 µM
same,TGI,[1],> 100 µM
same,GI50,[2],19.5 µM
same,TGI,[2],> 100 µM
same,GI50,[3],1.26 µM
same,TGI,[3],> 100 µM
same,GI50,[4],2 µM
same,TGI,[4],> 100 µM
same,GI50,[9],3.2 µM
same,TGI,[9],> 100 µM
same,GI50,[10],5.56 µM
same,TGI,[10],45.1 µM
same,GI50,[5],2.6 µM
same,TGI,[5],10.1 µM
same,GI50,[8],3.08 µM
same,TGI,[8],> 100 µM
same,GI50,[7],2.12 µM
same,TGI,[7],13.6 µM
CCOC(=O)C1=C(Nc2ccc(Br)cc2)OC/C1=N\NC(=O)c1ccccc1O,TGI,[1],> 100 µM
same,TGI,[2],> 100 µM
same,TGI,[3],38.6 µM
same,TGI,[4],> 100 µM
same,TGI,[5],34.2 µM
same,TGI,[6],49.4 µM
same,TGI,[8],14.2 µM
same,TGI,[7],> 100 µM
CCCCn1c2ccccc2c2ccc3c(c21)C(=O)C=CC3=O,TGI,[1],> 100 µM
same,TGI,[2],> 100 µM
same,TGI,[3],> 100 µM
same,TGI,[4],> 100 µM
same,TGI,[5],> 100 µM
same,TGI,[6],> 100 µM
same,TGI,[7],> 100 µM
O=c1cccccc1[O-].O=c1cccccc1[O-].O=c1cccccc1[O-].[Ce+3],TGI,[1],55.2 µM
same,TGI,[2],88.4 µM
same,TGI,[3],> 100 µM
same,TGI,[4],52.4 µM
same,TGI,[5],44.1 µM
same,TGI,[6],> 100 µM
same,TGI,[8],40.4 µM
same,TGI,[7],65.2 µM
Cc1ccc(C2=C(c3ccc(C)cc3)C(c3ccc(C)cc3)=C(c3ccc(C)cc3)C2=O)cc1,TGI,[1],> 100 µM
same,TGI,[2],> 100 µM
same,TGI,[3],> 100 µM
same,TGI,[4],> 100 µM
same,TGI,[5],> 100 µM
same,TGI,[6],> 100 µM
same,TGI,[8],> 100 µM
same,TGI,[7],> 100 µM
